Results: patent US20220323411A1, “COMPOSITIONS FOR THE TREATMENT OF SOLID TUMORS” (Raziel Therapeutics Ltd., priority 2019, published 2022)
Marks after values point to notes of the source that are not given here.

Columns and labels:
[1] = system: A549 cells; test: Xenograft Study 1: A549 subcutaneous tumors in nude mice, intratumoral injection; format: in vivo; conditions: for Tumor volume 3 weeks after injection (mm^3 ± S.E.M.): first dose day 25, double dose day 32, mean, N=10, initial volume 496; for Reduction in tumor volume vs. vehicle (%): 3 weeks after injection
Description: A549 cells were injected subcutaneously to nude mice and allowed to grow to an estimated tumor volume of about 500 mm^3 as determined by caliper. The mice were divided into four groups (N=10 per group), dosed twice via intratumoral injection with either a vehicle (comprising water for injection, benzyl alcohol, propylene glycol, and Tween-80) or with 1 mg, 2.5 mg, or 5 mg of 5-(3, 6-dibromo-9H-carbazol-9-yl)-N,N,N-trimethylpentan-1-aminium chloride according to the experimental design shown in Table 1 below:
(§1) For three weeks post-injection, tumor size was determined by caliper and tumor volume was calculated. Mean tumor volumes for the various cohorts are summarized in Table 2 below and graphically in FIG. 1 (arrows indicate treatment days), while the mice's change in body weight is summarized in FIG. 2.

[2] = system: A549 cells; test: Xenograft Study 2: A549 subcutaneous tumors in nude mice, intratumoral injection; format: in vivo
Description: A549 cells were injected subcutaneously to nude mice and allowed to grow to an estimated tumor volume of about 300 mm^3 as determined by caliper. The mice were divided into three groups (N=10 per group), dosed three times via intratumoral injection with either a vehicle (comprising water for injection, benzyl alcohol, propylene glycol, and Tween-80) or with 5 mg of […])-N,N,N-trimethylpentan-1-aminium chloride, or not injected at all, according to the experimental design shown in Table 3 below:
as §1, with “Median” for “Mean”, “4” for “2”, “3” for “1”, “4.” for “2.”

[3] = 5 mg intratumoral, dosed three times

C[N+](C)(C)CCCCCn1c2ccc(Br)cc2c2cc(Br)ccc21 [Test Compound, 5-(3,6-dibromo-9H-carbazol-9-yl)-N,N,N-trimethylpentan-1-aminium chloride]
Tumor volume 3 weeks after injection (mm^3 ± S.E.M.) ([1]; 1 mg/mouse intratumoral): 1753 (±80) mm^3 | Reduction in tumor volume vs. vehicle (%) ([1]; 1 mg/mouse intratumoral, P-value vs. vehicle 0.86): 7.7% | Tumor volume 3 weeks after injection (mm^3 ± S.E.M.) ([1]; 2.5 mg/mouse intratumoral): 1512 (±149) mm^3 | Reduction in tumor volume vs. vehicle (%) ([1]; 2.5 mg/mouse intratumoral, P-value vs. vehicle 0.17): 20.4% | Effect on mouse body weight ([1]; 5 mg intratumoral, dosed twice): did not affect mouse body weight | Effect on tumor size ([1]; 5 mg intratumoral, dosed twice): significantly reduced tumor size | Tumor volume 3 weeks after injection (mm^3 ± S.E.M.) ([1]; 5 mg/mouse intratumoral): 1309 (±229) mm^3 | Reduction in tumor volume vs. vehicle (%) ([1]; 5 mg/mouse intratumoral, P-value vs. vehicle 0.03): 31.1* % | Effect on mouse body weight [2, 3]: did not affect mouse body weight | Effect on tumor size [2, 3]: significantly reduced tumor size | Reduction in tumor volume vs. non-injected group (%) ([2]; 5 mg/mouse intratumoral once a week for 3 weeks, P-value vs. non-injected group 0.02): 46* % | Tumor volume 3 weeks after injection (median) ([2]; 5 mg/mouse intratumoral once a week for 3 weeks, median, N=10, initial volume 287): 648 mm³
